Assay results taken from patent US20220096389A1, “PHARMACEUTICAL COMPOSITIONS OF AMORPHOUS SOLID DISPERSIONS AND METHODS OF PREPARATION THEREOF” (Shenzhen Pharmacin Co., Ltd., priority 2020, published 2022).
Like-named read-outs stand apart in the source and are kept apart here.

Key:
[1] = cited from earlier work; for Measured or Calculated pKas (first value): first value in cell; for Measured or Calculated pKas (second value): second value in cell
[2] = target: Human Epidermal Growth Factor Receptor 2 (HER2) (Homo sapiens, UniProt P04626); settings: cited from earlier work
Human Epidermal Growth Factor Receptor 2 (HER2), sequence (P04626 23-1255): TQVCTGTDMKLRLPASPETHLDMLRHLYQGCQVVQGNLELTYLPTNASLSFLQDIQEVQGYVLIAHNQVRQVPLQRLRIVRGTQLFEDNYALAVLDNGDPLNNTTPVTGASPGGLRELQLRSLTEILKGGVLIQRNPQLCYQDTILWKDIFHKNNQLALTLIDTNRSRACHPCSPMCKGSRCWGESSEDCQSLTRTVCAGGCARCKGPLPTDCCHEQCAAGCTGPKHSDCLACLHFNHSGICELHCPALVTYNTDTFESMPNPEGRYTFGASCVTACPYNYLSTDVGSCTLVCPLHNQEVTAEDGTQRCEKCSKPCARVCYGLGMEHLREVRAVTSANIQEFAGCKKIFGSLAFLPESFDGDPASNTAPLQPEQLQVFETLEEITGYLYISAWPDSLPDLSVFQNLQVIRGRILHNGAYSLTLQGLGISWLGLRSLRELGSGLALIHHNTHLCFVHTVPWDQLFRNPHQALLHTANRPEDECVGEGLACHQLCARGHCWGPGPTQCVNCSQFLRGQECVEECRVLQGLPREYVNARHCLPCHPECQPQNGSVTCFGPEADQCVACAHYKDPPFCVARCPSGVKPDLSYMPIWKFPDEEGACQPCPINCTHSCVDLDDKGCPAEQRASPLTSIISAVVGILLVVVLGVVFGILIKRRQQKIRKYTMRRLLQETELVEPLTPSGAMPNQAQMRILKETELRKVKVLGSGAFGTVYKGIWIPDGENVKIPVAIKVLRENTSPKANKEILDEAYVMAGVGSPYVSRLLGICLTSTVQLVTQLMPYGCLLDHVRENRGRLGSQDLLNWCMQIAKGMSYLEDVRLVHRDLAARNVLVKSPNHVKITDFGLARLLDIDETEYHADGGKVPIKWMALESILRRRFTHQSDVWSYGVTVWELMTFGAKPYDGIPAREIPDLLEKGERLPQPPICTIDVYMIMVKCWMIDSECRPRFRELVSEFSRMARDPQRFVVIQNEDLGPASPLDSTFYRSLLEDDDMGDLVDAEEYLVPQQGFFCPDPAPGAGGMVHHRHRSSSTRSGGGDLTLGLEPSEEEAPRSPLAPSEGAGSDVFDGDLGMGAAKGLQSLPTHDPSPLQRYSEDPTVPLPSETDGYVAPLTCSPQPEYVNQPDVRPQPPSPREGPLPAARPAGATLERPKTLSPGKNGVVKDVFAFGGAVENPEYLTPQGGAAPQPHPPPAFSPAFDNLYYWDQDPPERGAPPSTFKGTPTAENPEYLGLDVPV

HER4 = HER4 (Homo sapiens, UniProt Q15303); settings: cited from earlier work
HER4, sequence (Q15303 26-1308): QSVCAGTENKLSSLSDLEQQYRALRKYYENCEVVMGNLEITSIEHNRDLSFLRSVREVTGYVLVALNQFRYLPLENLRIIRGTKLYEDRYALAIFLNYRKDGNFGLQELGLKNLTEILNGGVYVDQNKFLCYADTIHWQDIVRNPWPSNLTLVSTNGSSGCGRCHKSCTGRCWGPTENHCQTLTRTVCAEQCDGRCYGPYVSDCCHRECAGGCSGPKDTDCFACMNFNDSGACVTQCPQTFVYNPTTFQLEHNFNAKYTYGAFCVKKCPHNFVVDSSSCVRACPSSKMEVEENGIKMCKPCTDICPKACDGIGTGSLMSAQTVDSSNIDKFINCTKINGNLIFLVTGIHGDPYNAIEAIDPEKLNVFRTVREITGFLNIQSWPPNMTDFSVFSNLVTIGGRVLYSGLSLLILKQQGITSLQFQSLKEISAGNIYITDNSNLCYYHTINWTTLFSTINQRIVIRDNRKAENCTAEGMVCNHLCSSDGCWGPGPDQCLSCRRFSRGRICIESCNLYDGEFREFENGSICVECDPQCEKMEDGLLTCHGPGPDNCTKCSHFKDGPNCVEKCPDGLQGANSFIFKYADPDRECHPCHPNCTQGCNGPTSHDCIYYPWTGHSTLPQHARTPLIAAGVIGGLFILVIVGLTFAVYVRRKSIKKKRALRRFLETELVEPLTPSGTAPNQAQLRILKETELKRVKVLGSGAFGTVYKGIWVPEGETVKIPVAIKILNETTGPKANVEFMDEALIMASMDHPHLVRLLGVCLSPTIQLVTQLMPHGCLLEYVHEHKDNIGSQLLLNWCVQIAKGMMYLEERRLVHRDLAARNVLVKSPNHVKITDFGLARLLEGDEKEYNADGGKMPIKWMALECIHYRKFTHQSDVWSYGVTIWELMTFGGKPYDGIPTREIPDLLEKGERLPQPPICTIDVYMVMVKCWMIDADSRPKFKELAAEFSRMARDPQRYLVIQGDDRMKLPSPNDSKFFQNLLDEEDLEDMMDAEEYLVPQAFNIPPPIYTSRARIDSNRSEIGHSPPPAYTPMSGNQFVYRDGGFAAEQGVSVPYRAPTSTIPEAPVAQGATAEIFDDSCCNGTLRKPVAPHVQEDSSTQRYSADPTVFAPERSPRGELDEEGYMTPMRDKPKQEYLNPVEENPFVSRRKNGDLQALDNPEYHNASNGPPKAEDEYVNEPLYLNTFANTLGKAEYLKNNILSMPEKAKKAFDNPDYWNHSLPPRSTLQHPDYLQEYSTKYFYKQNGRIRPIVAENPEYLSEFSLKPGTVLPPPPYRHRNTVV

[3] = system: EGFR and/or HER2 expressing carcinoma cell lines; settings: in vitro; cited from earlier work
[4] = system: tumor cell lines expressing HER2 and EGFR; settings: oral administration; cited from earlier work
[5] = system: EGFR and HER2 autophosphorylation, downstream MAPK and AKT signaling pathways; settings: in vitro; cited from earlier work
[6] = Kinetic solubility profiles of palbociclib ASD powders; assay type: physicochemical; settings: aqueous buffer, thermodynamic from solid; pH 6.5 phosphate buffer, 37 C
[7] = cited from earlier work

Row | Structure (SMILES) | Measured or Calculated pKas (first value) [1] | Measured or Calculated pKas (second value) [1] | other results
1 | CN1CCN(c2c(F)cc3c(=O)c(C(=O)O)cn4c3c2OCN4C)CC1 [Marbofloxacin] | 5.69 ± 0.10 | 8.02 ± 0.20 | 
2 | C=C1c2c(Cl)ccc(O)c2C(=O)C2=C(O)[C@]3(O)C(=O)C(C(N)=O)=C(O)[C@@H](N(C)C)[C@@H]3[C@@H](O)[C@H]12 [Meclocycline] | 4.05 ± 0.30 | 6.87 ± 0.39 | 
3 | CCOc1cc2ncc(C#N)c(Nc3ccc(OCc4ccccn4)c(Cl)c3)c2cc1NC(=O)/C=C/CN(C)C [Neratinib] |  |  | binding to HER2 [2]: irreversibly binds; binding to HER4 (HER4): irreversibly binds; antitumor activity in carcinoma cell lines [3]: antitumor activity; tumor growth in mouse xenograft models [4]: inhibited tumor growth; EGFR and HER2 autophosphorylation, downstream MAPK and AKT signaling [5]: reduces
4 | CC1COc2c(N3CCN(C)CC3)c(F)cc3c(=O)c(C(=O)O)cn1c23 (stereo not shown) [Ofloxacin] | 6.22 ± 0.05 | 7.81 ± 0.08 | 
5 | COc1ccc2[nH]c([S+]([O-])Cc3ncc(C)c(OC)c3C)nc2c1 (stereo not shown) [Omeprazole] | 4.14 | 8.90 | 
6 | C=CCOc1ccccc1OCC(O)CNC(C)C (stereo not shown) [Oxprenolol] | 9.62 |  | 
7 | CN(C)[C@@H]1C(O)=C(C(N)=O)C(=O)[C@@]2(O)C(O)=C3C(=O)c4c(O)cccc4[C@@](C)(O)[C@H]3[C@H](O)[C@@H]12 [Oxytetracycline] | 3.04 | 8.00 | 
8 | CC(=O)c1c(C)c2cnc(Nc3ccc(N4CCNCC4)cn3)nc2n(C2CCCC2)c1=O [Palbociclib, 6-acetyl-8-cyclopentyl-5-methyl-2-[(5-piperazin-1-ylpyridin-2-yl)amino]pyrido[2,3-d]pyrimidin-7-one] |  |  | solubility [6]: < 10 µg/mL; solubility ([7]; pH value below 4): high; solubility ([7]; pH value higher than 4): less than 0.02 mg/ml
9 | CCn1cc(C(=O)O)c(=O)c2cnc(N3CCNCC3)nc21 [Pipemidic acid] | 5.42 ± 0.05 | 8.18 ± 0.09 | 
10 | CC(=O)Nc1ccc(OCC(O)CNC(C)C)cc1 (stereo not shown) [Practolol] | 9.41 |  | 
11 | CCN(CC)CCOC(=O)c1ccc(N)cc1 [Procaine] | 2.28 ± 0.08 | 9.02 ± 0.01 | 
12 | CC(C)NCC(O)COc1cccc2ccccc12 (stereo not shown) [Propranolol] | 9.49 ± 0.2 |  | 
13 | CC[C@H]1OC(=O)[C@H](C)[C@@H](O[C@H]2C[C@@](C)(OC)[C@@H](O)[C@H](C)O2)[C@H](C)[C@@H](O[C@@H]2O[C@H](C)C[C@H](N(C)C)[C@H]2O)[C@](C)(O)C[C@@H](C)/C(=N\OCOCCOC)[C@H](C)[C@@H](O)[C@]1(C)O [Roxithromycin] | 9.17 ± 0.30 |  | 
14 | O=C(O)c1cn(-c2ccc(F)cc2)c2cc(N3CCNCC3)c(F)cc2c1=O [Sarafloxacin] | 5.62 ± 0.08 | 8.18 ± 0.09 | 
15 | CC(=O)NS(=O)(=O)c1ccc(N)cc1 [Sulfacetamide] | 1.95 ± 0.11 | 5.30 ± 0.05 | 
16 | Nc1ccc(S(=O)(=O)Nc2ccc(Cl)nn2)cc1 [Sulfachloropyridazine] | 1.87 ± 0.30 | 5.45 ± 0.06 | 
17 | Nc1ccc(S(=O)(=O)Nc2ncccn2)cc1 [Sulfadiazine] | 2.10 | 6.28 | 
18 | [H]/N=C(/N)NS(=O)(=O)c1ccc(N)cc1 [Sulfaguanidine] | 1.55 | 11.24 | 
19 | Cc1ccnc(NS(=O)(=O)c2ccc(N)cc2)n1 [Sulfamerazine] | 2.17 | 6.77 | 
20 | Cc1cc(C)nc(NS(=O)(=O)c2ccc(N)cc2)n1 [Sulfamethazine] | 2.28 | 7.42 | 
21 | Cc1nnc(NS(=O)(=O)c2ccc(N)cc2)s1 [Sulfamethizole] | 1.86 ± 0.30 | 5.29 ± 0.04 | 
22 | Nc1ccc(S(=O)(=O)Nc2nccs2)cc1 [Sulfathiazole] | 2.08 | 7.07 | 
23 | CC(C)(C)NC[C@H](O)COc1nsnc1N1CCOCC1 [Timolol] | 9.34 |  | 
24 | COc1cc(Cc2cnc(N)nc2N)cc(OC)c1OC [Trimethoprim] | 3.23 ± 0.30 | 6.76 ± 0.12 | 
25 | CC[C@H]1OC(=O)C[C@@H](O)[C@H](C)[C@@H](O[C@@H]2O[C@H](C)[C@@H](O[C@H]3C[C@@](C)(O)[C@@H](O)[C@H](C)O3)[C@H](N(C)C)[C@H]2O)[C@@H](CC=O)C[C@@H](C)C(=O)/C=C/C(C)=C/[C@@H]1CO[C@@H]1O[C@H](C)[C@@H](O)[C@@H](OC)[C@H]1OC [Tylosin] | 3.31 ± 0.30 | 7.50 ± 0.13 | 
